{"source": "ChEMBL document CHEMBL1201862", "about": "“PubChem BioAssay data set” (2004)", "experiment_in_all_cases": "NCI-60 cell line screen, 48 h", "key": {"[1]": {"system": "SK-MEL-2"}, "[2]": {"system": "786-0"}, "[3]": {"system": "A498"}, "[4]": {"system": "EKVX"}, "[5]": {"system": "BT-549"}, "[6]": {"system": "OVCAR-3"}, "[7]": {"system": "K562"}, "[8]": {"system": "SR"}, "[9]": {"system": "LOX IMVI"}, "[10]": {"system": "DU-145"}, "[11]": {"system": "CCRF-CEM"}, "[12]": {"system": "MDA-MB-435"}, "[13]": {"system": "ACHN"}, "[14]": {"system": "MDA-MB-231"}, "[15]": {"system": "MOLT-4"}, "[16]": {"system": "KM12"}, "[17]": {"system": "HCT-116"}, "[18]": {"system": "SK-MEL-5"}, "[19]": {"system": "SNB-75"}, "[20]": {"system": "OVCAR-8"}, "[21]": {"system": "SF-268"}, "[22]": {"system": "NCI/ADR-RES"}, "[23]": {"system": "UACC-257"}, "[24]": {"system": "Malme-3M"}, "[25]": {"system": "NCI-H460"}, "[26]": {"system": "HT-29"}, "[27]": {"system": "MCF7"}, "[28]": {"system": "NCI-H226"}, "[29]": {"system": "HCT-15"}, "[30]": {"system": "MDA-N"}, "[31]": {"system": "SNB-19"}, "[32]": {"system": "TK-10"}, "[33]": {"system": "U-251"}, "[34]": {"system": "HL-60"}, "[35]": {"system": "SF-539"}, "[36]": {"system": "SN12C"}, "[37]": {"system": "NCI-H23"}, "[38]": {"system": "SK-OV-3"}, "[39]": {"system": "Hs-578T"}, "[40]": {"system": "CAKI-1"}, "[41]": {"system": "M14"}, "[42]": {"system": "UACC-62"}, "[43]": {"system": "HOP-62"}, "[44]": {"system": "RXF 393"}, "[45]": {"system": "RPMI-8226"}, "[46]": {"system": "SW-620"}, "[47]": {"system": "SF-295"}, "[48]": {"system": "COLO 205"}, "[49]": {"system": "OVCAR-5"}, "[50]": {"system": "SK-MEL-28"}, "[51]": {"system": "PC-3"}, "[52]": {"system": "IGROV-1"}, "[53]": {"system": "A549"}, "[54]": {"system": "HCC 2998"}, "[55]": {"system": "HOP-92"}, "[56]": {"system": "OVCAR-4"}, "[57]": {"system": "UO-31"}, "[58]": {"system": "T47D"}}, "note": "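The compound was tested at five concentrations on cells cultured in 96-well plates, with a 48-hour exposure period. The concentration for 50% growth inhibition is given as GI50.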 The source made the active and inactive calls. Cut-off read from the data, not from the text of the source: active = GI50 up to about 1.1 µM and inactive = higher."}
{"smiles": "CC(Cn1c(=O)oc2ccccc21)N(C)C", "note": "(centres undefined)", "values": [{"measurement": "GI50", "setting": "[1]", "result": "> 100 µM (inactive)"}, {"measurement": "GI50", "setting": "[2]", "result": "> 100 µM (inactive)"}, {"measurement": "GI50", "setting": "[3]", "result": "> 100 µM (inactive)"}, {"measurement": "GI50", "setting": "[4]", "result": "> 100 µM (inactive)"}, {"measurement": "GI50", "setting": "[5]", "result": "> 100 µM (inactive)"}, {"measurement": "GI50", "setting": "[6]", "result": "> 100 µM (inactive)"}, {"measurement": "GI50", "setting": "[7]", "result": "> 100 µM (inactive)"}, {"measurement": "GI50", "setting": "[8]", "result": "> 100 µM (inactive)"}, {"measurement": "GI50", "setting": "[9]", "result": "> 100 µM (inactive)"}, {"measurement": "GI50", "setting": "[10]", "result": "> 100 µM (inactive)"}, {"measurement": "GI50", "setting": "[11]", "result": "> 100 µM (inactive)"}, {"measurement": "GI50", "setting": "[12]", "result": "> 100 µM (inactive)"}, {"measurement": "GI50", "setting": "[13]", "result": "> 100 µM (inactive)"}, {"measurement": "GI50", "setting": "[14]", "result": "> 100 µM (inactive)"}, {"measurement": "GI50", "setting": "[15]", "result": "> 100 µM (inactive)"}, {"measurement": "GI50", "setting": "[16]", "result": "> 100 µM (inactive)"}, {"measurement": "GI50", "setting": "[17]", "result": "> 100 µM (inactive)"}, {"measurement": "GI50", "setting": "[18]", "result": "> 100 µM (inactive)"}, {"measurement": "GI50", "setting": "[19]", "result": "> 100 µM (inactive)"}, {"measurement": "GI50", "setting": "[20]", "result": "> 100 µM (inactive)"}, {"measurement": "GI50", "setting": "[21]", "result": "> 100 µM (inactive)"}, {"measurement": "GI50", "setting": "[22]", "result": "> 100 µM (inactive)"}, {"measurement": "GI50", "setting": "[23]", "result": "> 100 µM (inactive)"}, {"measurement": "GI50", "setting": "[24]", "result": "> 100 µM (inactive)"}, {"measurement": "GI50", "setting": "[25]", "result": "> 100 µM (inactive)"}, {"measurement": "GI50", "setting": "[26]", "result": "> 100 µM (inactive)"}, {"measurement": "GI50", "setting": "[27]", "result": "> 100 µM (inactive)"}, {"measurement": "GI50", "setting": "[28]", "result": "> 100 µM (inactive)"}, {"measurement": "GI50", "setting": "[29]", "result": "> 100", "unit": "µM"}, {"measurement": "GI50", "setting": "[30]", "result": "> 100 µM (inactive)"}, {"measurement": "GI50", "setting": "[31]", "result": "> 100 µM (inactive)"}, {"measurement": "GI50", "setting": "[32]", "result": "> 100 µM (inactive)"}, {"measurement": "GI50", "setting": "[33]", "result": "> 100 µM (inactive)"}, {"measurement": "GI50", "setting": "[34]", "result": "> 100 µM (inactive)"}, {"measurement": "GI50", "setting": "[35]", "result": "> 100 µM (inactive)"}, {"measurement": "GI50", "setting": "[36]", "result": "> 100 µM (inactive)"}, {"measurement": "GI50", "setting": "[37]", "result": "> 100 µM (inactive)"}, {"measurement": "GI50", "setting": "[38]", "result": "> 100 µM (inactive)"}, {"measurement": "GI50", "setting": "[39]", "result": "> 100 µM (inactive)"}, {"measurement": "GI50", "setting": "[40]", "result": "> 100 µM (inactive)"}, {"measurement": "GI50", "setting": "[41]", "result": "> 100 µM (inactive)"}, {"measurement": "GI50", "setting": "[42]", "result": "> 100 µM (inactive)"}, {"measurement": "GI50", "setting": "[43]", "result": "> 100 µM (inactive)"}, {"measurement": "GI50", "setting": "[44]", "result": "> 100 µM (inactive)"}, {"measurement": "GI50", "setting": "[45]", "result": "> 100 µM (inactive)"}, {"measurement": "GI50", "setting": "[46]", "result": "> 100 µM (inactive)"}, {"measurement": "GI50", "setting": "[47]", "result": "> 100 µM (inactive)"}, {"measurement": "GI50", "setting": "[48]", "result": "> 100 µM (inactive)"}, {"measurement": "GI50", "setting": "[49]", "result": "> 100 µM (inactive)"}, {"measurement": "GI50", "setting": "[50]", "result": "> 100 µM (inactive)"}, {"measurement": "GI50", "setting": "[51]", "result": "> 100 µM (inactive)"}, {"measurement": "GI50", "setting": "[52]", "result": "> 100 µM (inactive)"}]}
{"smiles": "Cc1cn(C(Cc2ccccc2)OCCO)c(=O)[nH]c1=O", "note": "(centres undefined)", "values": [{"measurement": "GI50", "setting": "[1]", "result": "> 100 µM (inactive)"}, {"measurement": "GI50", "setting": "[53]", "result": "> 100 µM (inactive)"}, {"measurement": "GI50", "setting": "[2]", "result": "> 100 µM (inactive)"}, {"measurement": "GI50", "setting": "[3]", "result": "> 100 µM (inactive)"}, {"measurement": "GI50", "setting": "[4]", "result": "> 100 µM (inactive)"}, {"measurement": "GI50", "setting": "[5]", "result": "> 100 µM (inactive)"}, {"measurement": "GI50", "setting": "[6]", "result": "> 100 µM (inactive)"}, {"measurement": "GI50", "setting": "[7]", "result": "> 100 µM (inactive)"}, {"measurement": "GI50", "setting": "[8]", "result": "> 100 µM (inactive)"}, {"measurement": "GI50", "setting": "[9]", "result": "> 100 µM (inactive)"}, {"measurement": "GI50", "setting": "[10]", "result": "> 100 µM (inactive)"}, {"measurement": "GI50", "setting": "[11]", "result": "> 100 µM (inactive)"}, {"measurement": "GI50", "setting": "[12]", "result": "> 100 µM (inactive)"}, {"measurement": "GI50", "setting": "[13]", "result": "> 100 µM (inactive)"}, {"measurement": "GI50", "setting": "[14]", "result": "> 100 µM (inactive)"}, {"measurement": "GI50", "setting": "[15]", "result": "> 100 µM (inactive)"}, {"measurement": "GI50", "setting": "[16]", "result": "> 100 µM (inactive)"}, {"measurement": "GI50", "setting": "[17]", "result": "> 100 µM (inactive)"}, {"measurement": "GI50", "setting": "[18]", "result": "> 100 µM (inactive)"}, {"measurement": "GI50", "setting": "[19]", "result": "> 100 µM (inactive)"}, {"measurement": "GI50", "setting": "[20]", "result": "> 100 µM (inactive)"}, {"measurement": "GI50", "setting": "[22]", "result": "> 100 µM (inactive)"}, {"measurement": "GI50", "setting": "[23]", "result": "> 100 µM (inactive)"}, {"measurement": "GI50", "setting": "[25]", "result": "> 100 µM (inactive)"}, {"measurement": "GI50", "setting": "[26]", "result": "> 100 µM (inactive)"}, {"measurement": "GI50", "setting": "[27]", "result": "> 100 µM (inactive)"}, {"measurement": "GI50", "setting": "[54]", "result": "> 100 µM (inactive)"}, {"measurement": "GI50", "setting": "[28]", "result": "> 100 µM (inactive)"}, {"measurement": "GI50", "setting": "[29]", "result": "> 100", "unit": "µM"}, {"measurement": "GI50", "setting": "[55]", "result": "> 100 µM (inactive)"}, {"measurement": "GI50", "setting": "[30]", "result": "> 100 µM (inactive)"}, {"measurement": "GI50", "setting": "[31]", "result": "> 100 µM (inactive)"}, {"measurement": "GI50", "setting": "[33]", "result": "> 100 µM (inactive)"}, {"measurement": "GI50", "setting": "[35]", "result": "> 100 µM (inactive)"}, {"measurement": "GI50", "setting": "[36]", "result": "> 100 µM (inactive)"}, {"measurement": "GI50", "setting": "[37]", "result": "> 100 µM (inactive)"}, {"measurement": "GI50", "setting": "[56]", "result": "> 100 µM (inactive)"}, {"measurement": "GI50", "setting": "[40]", "result": "> 100 µM (inactive)"}, {"measurement": "GI50", "setting": "[41]", "result": "> 100 µM (inactive)"}, {"measurement": "GI50", "setting": "[42]", "result": "> 100 µM (inactive)"}, {"measurement": "GI50", "setting": "[43]", "result": "> 100 µM (inactive)"}, {"measurement": "GI50", "setting": "[44]", "result": "> 100 µM (inactive)"}, {"measurement": "GI50", "setting": "[45]", "result": "> 100 µM (inactive)"}, {"measurement": "GI50", "setting": "[46]", "result": "> 100 µM (inactive)"}, {"measurement": "GI50", "setting": "[47]", "result": "> 100 µM (inactive)"}, {"measurement": "GI50", "setting": "[48]", "result": "> 100 µM (inactive)"}, {"measurement": "GI50", "setting": "[49]", "result": "> 100 µM (inactive)"}, {"measurement": "GI50", "setting": "[50]", "result": "> 100 µM (inactive)"}, {"measurement": "GI50", "setting": "[57]", "result": "> 100 µM (inactive)"}, {"measurement": "GI50", "setting": "[58]", "result": "> 100 µM (inactive)"}, {"measurement": "GI50", "setting": "[51]", "result": "> 100 µM (inactive)"}, {"measurement": "GI50", "setting": "[52]", "result": "> 100 µM (inactive)"}]}
